Read-outs that look alike come from different tables or passages of the source.
Assays:
MIA PaCa-2 [1] = test: 24 and 48 h chemosensitivity (MTT, with recovery period); assay type: cell-based, human
Method: LogP = Log ( [C]final ) Eqn1
96 h Chemosensitivity Studies
In vitro chemosensitivity tests were performed at both the University of Huddersfield and the Institute of Cancer Therapeutics, Bradford, in a sterile Class II Biological Safety Cabinet fitted with a HEPA filtered laminar airflow.
Cellular assays were conducted against human pancreatic carcinoma (MIA PaCa-2), human colorectal carcinoma p53-wildtype (HCT116 p53+/+), and human non-cancerous epithelial retinal cells (ARPE-19). The ARPE-19 cells were obtained from the American Type Culture Collection and provided by the University of Huddersfield. All cell lines were routinely maintained as monolayer cultures in appropriate complete medium and maintained in either T-25 or T-75 flasks at 37 °C and 5% CO2. MIA PaCa-2 and ARPE-19 cells were cultured in high glucose DMEM-F12 medium containing 10% foetal calf serum, and HCT116 p53+/+ was cultured in RPMI 1640 supplemented with 10% foetal calf serum. All medium was supplemented with sodium pyruvate (1 mM) and L-glutamine (2 mM), and prior to chemosensitivity studies, cell monolayers were passaged using Trypsin-EDTA and diluted to a concentration of 1 x 10^4 cells/mL. All assays were conducted using 96-well plates, in which […] of the 1 x 10^4 cells/mL cell suspension was added to each well and incubated for 24 h at 37 °C and 5% CO2. After 24 h, 100 mL of drug dilutions (fresh 100 mM stock solutions in DMSO) in media were added to the plates and then incubated for a further 96 h at 37°C and 5% CO2 (48 h + 48 h recovery period were used for the shorter exposures with MIA PaCa-2 cells only). After 96 h, 20 mL MTT (3-(4,5-dimethylthiazol-2-yl)-2,5-diphenyltetrazolium bromide, 5 mg/mL) was added to each well and incubated for 3 h at 37 °C and 5% CO2. All solutions were then removed from the 96-well plates via pipette and […] of DMSO added to each well to dissolve the purple formazan crystals. After mixing well, the absorbance of each well was measured at 540 nm using a ThermoFisher Multiskan FC spectrophotometer microplate reader. Using the blank and 100% cell controls, the % cell viability was determined [(abs. of compound containing wells – abs. media wells)/(abs. 100% cell suspension well control)] and from this the % cell death (100%- % cell viability) was calculated. On a logarithmic scale, the percentage cell death was plotted against the concentration of compound, and from this the half maximal inhibitory concentration (IC50) value was determined. Each of the experiments were performed in triplicate with mean values being stated as the IC50 ± Standard Deviation (SD).
24 and 48 h Chemosensitivity Studies
The same experimental protocol described for the 96 h MTT assay was used, and the MIA PaCa-2 cells were incubated for either 24 or 48 h, with a 72 or 48 h recovery period respectively. […]
All assays were conducted in triplicate.

MIA PaCa-2 [2] = test: Whole cell uptake by ICP-MS; assay type: cell-based, human; settings: MIA PaCa-2, 10 μM, 48 h; for Whole cell uptake of Fe: ICP-MS
Method: Cellular assays were conducted against human pancreatic carcinoma (MIA PaCa-2), human colorectal carcinoma p53-wildtype (HCT116 p53+/+), and human non-cancerous epithelial retinal cells (ARPE-19). The ARPE-19 cells were obtained from the American Type Culture Collection and provided by the University of Huddersfield. All cell lines were routinely maintained as monolayer cultures in appropriate complete medium and maintained in either T-25 or T-75 flasks at 37 °C and 5% CO2. MIA PaCa-2 and ARPE-19 cells were cultured in high glucose DMEM-F12 medium containing 10% foetal calf serum, and HCT116 p53+/+ was cultured in RPMI 1640 supplemented with […]
10% foetal calf serum. […]
Cell uptake assays were conducted using MIA PaCa-2 cells and these were maintained as described above. All assays were conducted in 6-well plates and cell concentrations of 1 x 10^5 cells/ well in 2 mL of complete cell media. These cell suspensions were added to the wells and incubated at 37°C and 5% CO2 for 24 h. The media was then removed, and 2 mL of media/copper compound was added to each well. For each compound, a concentration of 10 µM of ligands L1, L2, L4, L7 or complexes C1, C2, C4, C7 were used. The cells were incubated with the complexes for 48 h, before removing and discarding the media. The cell monolayers were then individually washed with PBS (3 x 1 mL) and all waste discarded. 0.25% Trypsin-EDTA (0.5 mL) was then added until the cells were removed from the surface of the wells and then diluted with media (1.5 mL). The contents of each well were transferred to separate Falcon tubes and centrifuged at 1500 rpm for 5 min. The supernatant was removed, the cell pellets were resuspended in PBS (1 mL) and centrifuged again at 1500 rpm for 5 min (this was completed 3 times). On the final time, the cells were counted before the last centrifuge and then pelleted and store in the freezer for ICP-MS analysis. All assays were conducted in triplicate.
Samples were then taken up in Optima high purity nitric acid, diluted to 10 mL with 1mL rhodium internal standard and 9 mL 18.2 Ultrapure water. The elemental contents of the samples were determined using ICP-MS-QQQ Thermo TQ spectrometer. Measurement of iron mass 56 and ruthenium isotope mass 100 was conducted by comparing solutions of known concentration and intensities. A series of standard calibration curves allows the concentration of each element to be determined. The standards were prepared by weight using 1000 mg/kg reference solutions. Operating conditions: cooling flow rate, 14.0 L/min, auxiliary gas flow rate, 0.8 L/min; sampling Depth 5 mm, additional gas flow 75 %, spray chamber 2.7 degrees, nebulizer flow rate, 1.144 L/min pump speed 15 rpm, RF power of 1,550 W.
Analysis of cellula r DNA damage by the Comet assay […]

[3] = MIA PaCa-2, 24 h exposure + 72 h recovery, read-out: IC50 values ± SD, 24 h
[4] = MIA PaCa-2, 48 h exposure + 48 h recovery, read-out: IC50 values ± SD, 48 h

| IC50 (MIA PaCa-2 [1]; [3]) [µM] | IC50 (MIA PaCa-2 [1]; [4]) [µM] | SMILES | Whole cell uptake of Fe (MIA PaCa-2 [2]) [ng Fe/10^6 cells] | increase in Fe uptake compared to the control (MIA PaCa-2 [2]) |
| --- | --- | --- | --- | --- |
| > 100 | 76 ± 3 | [NH2][Pt]([NH2])([Cl])[Cl] [CDDP, cisplatin, reference compound] |  |  |
| > 100 | 68 ± 3 | O=C(C=C(O)c1ccccc1)[c-]1cccc1.[Fe+2].c1cc[cH-]c1 [Complex L2] | 2524 ± 458 |  |
| 76 ± 3 | 61 ± 1 | CC(O)=CC(=O)[c-]1cccc1.[Fe+2].c1cc[cH-]c1 [Complex L1] | 2661 ± 974 |  |
| > 100 | 20 ± 1 | O=C(C=C(O)C(F)(F)F)[c-]1cccc1.[Fe+2].c1cc[cH-]c1 [Complex L7] | 1536 ± 202 | ca. 1.7 × |

Source: article PMC10428205, “Cytotoxicity of Ruthenium(II) Arene Complexes Containing Functionalized Ferrocenyl β-Diketonate Ligands” (Organometallics, 2023)
